ChEMBL document CHEMBL1201862, “PubChem BioAssay data set” (2004)
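48-hour exposure; five concentrations; linearly interpolated endpoints. GI50 is the concentration that inhibits growth by half.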 Calls of active or inactive are those of the source. Rule as the data show it: active = GI50 up to about 1.1 µM and inactive = higher.

What was measured:
Experiment in all cases: inhibition of tumour cell growth, NCI panel, 48 h
HCT-15 = test system: HCT-15
UACC-257 = test system: UACC-257
SK-MEL-2 = test system: SK-MEL-2
M14 = test system: M14
A498 = test system: A498
NCI-H23 = test system: NCI-H23
OVCAR-5 = test system: OVCAR-5
RPMI-8226 = test system: RPMI-8226
NCI-H226 = test system: NCI-H226
OVCAR-3 = test system: OVCAR-3
Malme-3M = test system: Malme-3M
TK-10 = test system: TK-10
HL-60 = test system: HL-60
OVCAR-8 = test system: OVCAR-8
NCI-H460 = test system: NCI-H460
HCC 2998 = test system: HCC 2998
LOX IMVI = test system: LOX IMVI
RXF 393 = test system: RXF 393

SMILES | GI50 (HCT-15) [µM] | GI50 (UACC-257) | GI50 (SK-MEL-2) | GI50 (M14) | GI50 (A498) | GI50 (NCI-H23) | GI50 (OVCAR-5) | GI50 (RPMI-8226) | GI50 (NCI-H226) | GI50 (OVCAR-3) | GI50 (Malme-3M) | GI50 (TK-10) | GI50 (HL-60) | GI50 (OVCAR-8) | GI50 (NCI-H460) | GI50 (HCC 2998) | GI50 (LOX IMVI) | GI50 (RXF 393)
CC1=C(C(=O)Nc2ccc(Cl)c(Cl)c2)C(c2ccco2)C(C(=O)Nc2ccc(Cl)c(Cl)c2)=C(C)N1 | 11.5 | 14.7 µM (inactive) | 12.4 µM (inactive) | 6.14 µM (inactive) | 12.8 µM (inactive) | 17.8 µM (inactive) | 15.1 µM (inactive) | 7.16 µM (inactive) | 12.5 µM (inactive) | 7.98 µM (inactive) | 14.8 µM (inactive) | 6.44 µM (inactive) | 19.3 µM (inactive) | 11.2 µM (inactive) | 13.7 µM (inactive) | 11.5 µM (inactive) |  | 
CC(=O)N(C(C)=O)C1=C2c3ccccc3N(S(=O)(=O)c3ccccc3)C2n2c(=O)n(-c3ccccc3)c(=O)n2C1 (configuration not stated) | 30.4 | 44.2 µM (inactive) | 22.9 µM (inactive) | 27.3 µM (inactive) |  | 26.5 µM (inactive) | 30.6 µM (inactive) | 12.7 µM (inactive) |  | 25.5 µM (inactive) | 20.9 µM (inactive) | 36.8 µM (inactive) | 23.3 µM (inactive) | 23.3 µM (inactive) | 15.3 µM (inactive) | 22.7 µM (inactive) | 29.9 µM (inactive) | 
O=c1nc2sc3ccc4ccccc4c3n2nc1O |  |  |  |  |  | 71.1 µM (inactive) |  | > 10 µM (inactive) | 30.5 µM (inactive) | 55.2 µM (inactive) |  | > 100 µM (inactive) | > 100 µM (inactive) | 94.6 µM (inactive) | 39.3 µM (inactive) | 54.8 µM (inactive) |  | 15.5 µM (inactive)
c1ccc(COc2cccc3cccnc23)cc1 |  | > 100 µM (inactive) |  | > 100 µM (inactive) |  | 44 µM (inactive) | > 100 µM (inactive) | > 100 µM (inactive) | > 100 µM (inactive) | 63.5 µM (inactive) | 48.4 µM (inactive) | > 100 µM (inactive) | 19.9 µM (inactive) | > 100 µM (inactive) | > 100 µM (inactive) | > 100 µM (inactive) | 54.5 µM (inactive) | 42.4 µM (inactive)
COC1OC(C)C(OCc2ccccc2)C(OS(=O)(=O)c2ccc(C)cc2)C1OS(=O)(=O)c1ccc(C)cc1 (configuration not stated) | > 100 | > 100 µM (inactive) | > 100 µM (inactive) | > 100 µM (inactive) |  | > 100 µM (inactive) | > 100 µM (inactive) | > 100 µM (inactive) | > 100 µM (inactive) | > 100 µM (inactive) | > 100 µM (inactive) |  | > 100 µM (inactive) | > 100 µM (inactive) | > 100 µM (inactive) | > 100 µM (inactive) |  | > 100 µM (inactive)
CC1=NN(C(=O)CC(=O)NC(=O)CC(=O)Nc2ccccc2F)C(=O)C1/N=N/c1ccc([N+](=O)[O-])cc1 (configuration not stated) | 33.7 | 29.6 µM (inactive) | > 100 µM (inactive) | 57.4 µM (inactive) | 34.3 µM (inactive) | 51.9 µM (inactive) | 97.7 µM (inactive) | 22.6 µM (inactive) | 33.1 µM (inactive) | 28.6 µM (inactive) | 39 µM (inactive) | 44.1 µM (inactive) |  | 47.6 µM (inactive) | 37.1 µM (inactive) | 71.6 µM (inactive) | 19.6 µM (inactive) | 
CC(c1ccccc1)N1O[C@]12CC[C@@]1(C)C(CCCC13OCCO3)C2 (some centres not stated) | 23.3 | 21.4 µM (inactive) |  | 17.6 µM (inactive) |  | 38.4 µM (inactive) | > 100 µM (inactive) | 35.7 µM (inactive) | > 100 µM (inactive) | 18.7 µM (inactive) | 32.1 µM (inactive) | 18.3 µM (inactive) |  | 16.7 µM (inactive) | 20.4 µM (inactive) | 75.5 µM (inactive) | 11.8 µM (inactive) | 23.6 µM (inactive)
